Source: patent US10400224B2, “Enantioselective modified esterase enzyme and method for the production thereof” (CORPORACIÓN CORPOGEN, priority 2014, dated 2019)
Each block holds one compound with its values, some of them ahead of it.

Key:
Type in all cases: biochemical, Acidicaldus organivorans USBA-GBX-499
modified esterase 499EST [1] = test: Effect of detergents on the modified esterase 499EST; conditions: for % actividad relativa: pNPC8, 55° C., pH 9.0, control without additives = 100%
Description: (§1) The activity of the modified enzyme was determined spectrophotometrically at 405 nm in a range of temperatures between 45 and 75° C., using p-nitro phenyl of other chains C6 to C10 (Sigma-Aldrich) as substrate. One unit of esterase activity was defined as the capacity of the enzyme to release 1 μmol min^−1 of p-nitrophenol under the essay conditions. The molar absorbance coefficient was of 16.900 M^−1 cm^−1. The mixture consisted of 448 μl of the Tris-HCl 50 mM buffer at 9.0 pH that contained 50 μl of p-nitrophenyl diluted in isopropanol and 2 μl of the solution stock of the protein. All the assays were made by triplicate and the average was calculated.
(§2) The evaluation of metallic, solvent and detergent ions and inhibitors of the modified enzyme was carried out incubating the enzyme in the presence of each of them for one hour at 30° C. The evaluation established the stability of the referenced enzyme at a control for which the enzyme was in absence of the additive. The result was expressed in percentage of residual activity, being 100% the control.
(§3) The effect of the detergents, sodium dodecyl sulfate (SDS), Tween 20, Tween 80, Triton X-100, were evaluated at concentrations of 1 and 5% (v/v) (Table 2). In the evaluations it was determined the effect of inhibitors such phenylmethanesulfonyl fluoride-PMSF, ethylenediaminetetraacetic acid, EDTA, 2-mercaptoethanol (2-ME), dithiothreitol (DTT), the evaluated concentration was of 5 mM.

modified esterase 499EST [2] = test: Effect of metallic ions on the activity of the modified esterase 499EST; conditions: for Actividad relativa (%): pNPC8, 55° C., pH 9.0, control without additives = 100%
Description: as §1, §2
It was evaluated the effect of metallic ions on the enzyme activity. The ions evaluated were: CaCl2, FeCl3, MgCl2, CoCl2, NiCl2, ZnCl2, CuCl2 and MnCl2, the concentrations used were 1 mM and 10 mM. The effect of the ions Fe^3+ was evaluated at concentrations of 0.2 mM-10 mM, and its influence on the thermo stability between 50 and 65° C. (Table 1).

499EST = test: Effect of inhibitors on the modified enzyme 499EST; conditions: inhibitor 5 mM; one hour at 30° C.
Description: as §1, §2, §3

modified esterase 499EST [3] = test: Effect of organic solvents on the modified esterase; conditions: for % actividad relativa: pNPC8, 55° C., pH 9.0; for esterase activity increased to: solvent at a concentration of 15% and 30%
Description: as §1, §2
Effect of organic solvents. The activity of the enzyme was evaluated in presence of different organic solvents. Two concentrations were evaluated, 15 and 30% of 1 butanol, 2 butanol, acetonitrile, acetone, 1-propanol, 2-propanol, methanol, ethanol, glycerol, dimethyl sulfoxide (DMSO), dimethyl formamide (DMF) (Table 3)

Compound: CCCCCCCCCCCCOS(=O)(=O)[O-].[Na+] [SDS, sodium dodecyl sulfate]
- effect of detergent on lipolytic activity (modified esterase 499EST [1]; 1 and 5% (v/v)): strongly inhibits
- % actividad relativa (modified esterase 499EST [1]; detergent 1%): 8%
- % actividad relativa (modified esterase 499EST [1]; detergent 5%): 6%

Compound: [Cl][Mn][Cl] [Mn^2+, MnCl2]
- Actividad relativa (%) (modified esterase 499EST [2]; ion 1 mM): 252%
- Actividad relativa (%) (modified esterase 499EST [2]; ion 10 mM): 127%

Compound: [Cl-].[Cl-].[Mg+2] [Mg^2+, MgCl2]
- Actividad relativa (%) (modified esterase 499EST [2]; ion 1 mM): 76%
- Actividad relativa (%) (modified esterase 499EST [2]; ion 10 mM): 3%
- Actividad relativa (%) (modified esterase 499EST [2]; ion 10 mM, listed as Mg^+2): highest enzyme inhibition

- decrease in the relative enzymatic activity (499EST): 9%
Compound: O=C(O)CN(CCN(CC(=O)O)CC(=O)O)CC(=O)O [EDTA, ethylenediaminetetraacetic acid]

Compound: CCCCCCCC/C=C\CCCCCCCC(=O)OCCOCC(OCCO)C1OCC(OCCO)C1OCCO (centres unmarked) [Tween 80]
- % actividad relativa (modified esterase 499EST [1]; detergent 1%): 85%
- % actividad relativa (modified esterase 499EST [1]; detergent 5%): 32%

Compound: CCCO [1-propanol]
- % actividad relativa (modified esterase 499EST [3]; organic solvent 15%): 26.8%
- % actividad relativa (modified esterase 499EST [3]; organic solvent 30%): 24.81%

Compound: C[S+](C)[O-] [DMSO, dimethyl sulfoxide]
- % actividad relativa (modified esterase 499EST [3]; organic solvent 15%): 180.0%
- % actividad relativa (modified esterase 499EST [3]; organic solvent 30%): 200.2%
- esterase activity increased to (modified esterase 499EST [3]): 200%

Compound: CC(C)O [2-propanol]
- % actividad relativa (modified esterase 499EST [3]; organic solvent 15%): 80.0%
- % actividad relativa (modified esterase 499EST [3]; organic solvent 30%): 31.3%

Compound: [Cl][Fe]([Cl])[Cl] [Fe^3+, FeCl3]
- Actividad relativa (%) (modified esterase 499EST [2]; ion 1 mM): 111%
- Actividad relativa (%) (modified esterase 499EST [2]; ion 10 mM): 342%
- increase of the specific activity of the enzyme (modified esterase 499EST [2]; ion concentration from 2 to 10 mM): up to 3 times

- inhibition of the enzymatic activity (499EST): totally inhibits
Compound: O[C@H](CS)[C@H](O)CS (racemic) [DTT, dithiothreitol]

Compound: [Cl-].[Cl-].[Co+2] [Co^2+, CoCl2]
- Actividad relativa (%) (modified esterase 499EST [2]; ion 1 mM): 74%
- Actividad relativa (%) (modified esterase 499EST [2]; ion 10 mM): 23%
- Actividad relativa (%) (modified esterase 499EST [2]; ion 10 mM, listed as Co^+2): highest enzyme inhibition

- decrease in the relative enzymatic activity (499EST): 12%
Compound: OCCS [β-mercaptoethanol, 2-mercaptoethanol]

Compound: [Cl][Cu][Cl] [Cu^2+, CuCl2]
- Actividad relativa (%) (modified esterase 499EST [2]; ion 1 mM): 16%
- Actividad relativa (%) (modified esterase 499EST [2]; ion 10 mM): 0%
- Actividad relativa (%) (modified esterase 499EST [2]; ion 10 mM, listed as Cu^+2): highest enzyme inhibition

Compound: CCC(C)O (centres unmarked) [2-butanol]
- % actividad relativa (modified esterase 499EST [3]; organic solvent 15%): 16.3%
- % actividad relativa (modified esterase 499EST [3]; organic solvent 30%): 14.7%

Compound: CO [Metanol, methanol]
- % actividad relativa (modified esterase 499EST [3]; organic solvent 15%): 3.0%
- % actividad relativa (modified esterase 499EST [3]; organic solvent 30%): 0.0%

Compound: 1-butanol
- % actividad relativa (modified esterase 499EST [3]; organic solvent 15%): 1.5%
- % actividad relativa (modified esterase 499EST [3]; organic solvent 30%): 0.0%

Compound: OCC(O)CO [Glicerol, glycerol]
- % actividad relativa (modified esterase 499EST [3]; organic solvent 15%): 234.8%
- % actividad relativa (modified esterase 499EST [3]; organic solvent 30%): 250.3%
- esterase activity increased to (modified esterase 499EST [3]): 250%

Compound: [Cl-].[Cl-].[Zn+2] [Zn^2+, ZnCl2]
- Actividad relativa (%) (modified esterase 499EST [2]; ion 1 mM): 190%
- Actividad relativa (%) (modified esterase 499EST [2]; ion 10 mM): 21%
- Actividad relativa (%) (modified esterase 499EST [2]; ion 10 mM, listed as Zn^+2): highest enzyme inhibition

Compound: CC(C)=O [Acetona, acetone]
- % actividad relativa (modified esterase 499EST [3]; organic solvent 15%): 72.0%
- % actividad relativa (modified esterase 499EST [3]; organic solvent 30%): 9.7%

Compound: CCO [Etanol, ethanol]
- % actividad relativa (modified esterase 499EST [3]; organic solvent 15%): 22%
- % actividad relativa (modified esterase 499EST [3]; organic solvent 30%): 12.9%

Compound: O=S(=O)(F)Cc1ccccc1 [PMSF, phenylmethanesulfonyl fluoride]
- activity detected (499EST): 80%

Compound: [Ca+2].[Cl-].[Cl-] [Ca^2+, CaCl2]
- Actividad relativa (%) (modified esterase 499EST [2]; ion 1 mM): 9%
- Actividad relativa (%) (modified esterase 499EST [2]; ion 10 mM): 7%
- Actividad relativa (%) (modified esterase 499EST [2]; ion 10 mM, listed as Ca^+2): highest enzyme inhibition

Compound: CC#N [Acetonitrilo, acetonitrile]
- % actividad relativa (modified esterase 499EST [3]; organic solvent 15%): 17.0%
- % actividad relativa (modified esterase 499EST [3]; organic solvent 30%): 0.0%

Compound: CN(C)C=O [DMF, dimethyl formamide]
- % actividad relativa (modified esterase 499EST [3]; organic solvent 15%): 12.4%
- % actividad relativa (modified esterase 499EST [3]; organic solvent 30%): 12.4%
